Experimental data: the supplement of paper PMC10307832

How the values were obtained:
Experiment in all cases: relative viability (nuclei count vs DMSO), 5 days (fraction); higher = more cells survive
Pictilisib + Vorinostat = compound: CS(=O)(=O)N1CCN(Cc2cc3nc(-c4cccc5[nH]ncc45)nc(N4CCOCC4)c3s2)CC1 [Pictilisib] + O=C(CCCCCCC(=O)Nc1ccccc1)NO [Vorinostat] (partner 1 µM)
In short: (§1)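 After 5 days of treatment, lung cancer cells in 1536-well plates were fixed and stained in a single step (final 0.05% Triton X-100, 1% formaldehyde, 1 ug/ml Hoechst) and their nuclei counted on 4× images. Treatment had been applied by pin tool the day after seeding as one drug alone or as a fixed anchor-drug dose with five library-drug doses (not always all listed) in √10 steps. Relative viability is the nuclei count of treated wells divided by that of vehicle wells, and values are medians of duplicate plates.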

Pictilisib + Navitoclax = compound: CS(=O)(=O)N1CCN(Cc2cc3nc(-c4cccc5[nH]ncc45)nc(N4CCOCC4)c3s2)CC1 [Pictilisib] + CC1(C)CCC(c2ccc(Cl)cc2)=C(CN2CCN(c3ccc(C(=O)NS(=O)(=O)c4ccc(N[C@H](CCN5CCOCC5)CSc5ccccc5)c(S(=O)(=O)C(F)(F)F)c4)cc3)CC2)C1 [Navitoclax] (partner 0.5 µM)
In short: as §1

Pictilisib + Luminespib = compound: CS(=O)(=O)N1CCN(Cc2cc3nc(-c4cccc5[nH]ncc45)nc(N4CCOCC4)c3s2)CC1 [Pictilisib] + CCNC(=O)c1noc(-c2cc(C(C)C)c(O)cc2O)c1-c1ccc(CN2CCOCC2)cc1 [Luminespib] (partner 0.01 µM)
In short: as §1

MK-2206 + Pemetrexed = compound: NC1(c2ccc(-c3nc4ccn5c(=O)[nH]nc5c4cc3-c3ccccc3)cc2)CCC1 [MK-2206] + Nc1nc2[nH]cc(CCc3ccc(C(=O)N[C@@H](CCC(=O)O)C(=O)O)cc3)c2c(=O)[nH]1 [Pemetrexed] (partner 0.2 µM)
In short: as §1

MK-2206 = compound: NC1(c2ccc(-c3nc4ccn5c(=O)[nH]nc5c4cc3-c3ccccc3)cc2)CCC1 [MK-2206]
In short: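 Vehicle-anchored 1536-well plates of lung cancer cell lines, held overnight at 37 °C, were pinned with five library-drug doses (not always all listed) spaced by √10. No medium change followed over the next 5 days, after which the cells were fixed, permeabilised and Hoechst-stained together and imaged at 4×. Nuclei were counted with MetaXpress, and viability is treated-well nuclei over vehicle-well nuclei, taken as a median across plates. Plates passed with control CV below 25% and at least one doubling.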

| Cell Line | relative viability (Pictilisib + Vorinostat; first compound 0.02 µM) | relative viability (Pictilisib + Vorinostat; first compound 0.06325 µM) | relative viability (Pictilisib + Vorinostat; first compound 0.6325 µM) | relative viability (Pictilisib + Vorinostat; first compound 2 µM) | relative viability (Pictilisib + Navitoclax; first compound 0.02 µM) | relative viability (Pictilisib + Navitoclax; first compound 0.06325 µM) | relative viability (Pictilisib + Navitoclax; first compound 0.6325 µM) | relative viability (Pictilisib + Navitoclax; first compound 2 µM) | relative viability (Pictilisib + Luminespib; first compound 0.02 µM) | relative viability (Pictilisib + Luminespib; first compound 0.06325 µM) | relative viability (Pictilisib + Luminespib; first compound 0.6325 µM) | relative viability (Pictilisib + Luminespib; first compound 2 µM) | relative viability (MK-2206 + Pemetrexed; first compound 0.01 µM) | relative viability (MK-2206 + Pemetrexed; first compound 0.03162 µM) | relative viability (MK-2206 + Pemetrexed; first compound 0.3162 µM) | relative viability (MK-2206 + Pemetrexed; first compound 1 µM) | relative viability (MK-2206; 0.01 µM) | relative viability (MK-2206; 0.03162 µM) | relative viability (MK-2206; 0.3162 µM) | relative viability (MK-2206; 1 µM) |
| --- | --- | --- | --- | --- | --- | --- | --- | --- | --- | --- | --- | --- | --- | --- | --- | --- | --- | --- | --- | --- |
| NCI-H2228 | 0.524 | 0.72 | 0.434 | 0.253 | 0.948 | 0.563 | 0.59 | 0.181 | 0.12 | 0.184 | 0.129 | 0.121 | 0.333 | 0.307 | 0.336 | 0.318 | 0.871 | 0.845 | 0.658 | 0.517 |
| NCI-H2085 | 0.792 | 0.832 | 0.498 | 0.319 | 1.08 | 1.17 | 0.864 | 0.416 | 0.44 | 0.431 | 0.409 | 0.265 | 0.866 | 1.02 | 0.953 | 0.841 | 0.965 | 1.01 | 0.957 | 0.969 |
| EPLC-272H | 0.477 | 0.403 | 0.449 | 0.23 | 1.32 | 1.05 | 1.01 | 0.733 | 0.213 | 0.424 | 0.184 | 0.207 | 0.329 | 0.319 | 0.3 | 0.354 | 1.09 | 0.914 | 0.77 | 0.716 |
| 201T | 0.859 | 0.966 | 0.869 | 0.622 | 1.23 | 1.18 | 1.24 | 0.792 | 1.04 | 1 | 0.869 | 0.576 | 0.318 | 0.313 | 0.342 | 0.333 | 0.987 | 1.03 | 0.982 | 0.995 |
| NCI-H3122 | 0.91 | 0.965 | 0.759 | 0.504 | 0.986 | 1.04 | 0.966 | 0.475 | 0.0804 | 0.107 | 0.0795 | 0.0927 | 0.202 | 0.197 | 0.203 | 0.193 | 1.02 | 1.03 | 1.05 | 0.984 |
| NCI-H838 | 0.731 | 0.632 | 0.648 | 0.53 | 1.12 | 1.04 | 1.01 | 0.61 | 0.332 | 0.262 | 0.241 | 0.258 | 0.245 | 0.227 | 0.255 | 0.201 | 0.98 | 1.01 | 0.918 | 0.92 |
| NCI-H1755 | 0.795 | 0.812 | 0.642 | 0.354 | 1.01 | 1 | 0.889 | 0.571 | 0.412 | 0.384 | 0.305 | 0.189 | 0.405 | 0.404 | 0.353 | 0.374 | 0.955 | 0.989 | 0.907 | 0.918 |
| HCC-15 | 0.841 | 0.818 | 0.707 | 0.535 | 0.634 | 0.644 | 0.601 | 0.328 | 0.493 | 0.346 | 0.38 | 0.291 | 0.254 | 0.198 | 0.218 | 0.204 | 0.996 | 1.06 | 0.866 | 0.923 |
| NCI-H2087 | 0.61 | 1.06 | 0.919 | 0.539 | 1.04 | 0.945 | 0.943 | 0.674 | 0.138 | 0.144 | 0.19 | 0.165 | 0.623 | 0.624 | 0.667 | 0.684 | 0.938 | 1.25 | 0.881 | 0.746 |
| NCI-H1650 | 0.566 | 0.666 | 0.819 | 0.358 | 1.21 | 1.19 | 0.828 | 0.31 | 0.224 | 0.175 | 0.201 | 0.207 | 0.3 | 0.379 | 0.319 | 0.347 | 0.854 | 1.01 | 0.883 | 0.946 |
| LK-2 | 0.292 | 0.291 | 0.214 | 0.139 | 0.879 | 0.585 | 0.63 | 0.321 | 0.198 | 0.144 | 0.152 | 0.188 | 0.265 | 0.309 | 0.246 | 0.252 | 0.944 | 1.09 | 1.05 | 0.911 |
| ChaGo-K-1 | 0.797 | 0.773 | 0.64 | 0.609 | 1.19 | 1.32 | 0.987 | 0.826 | 0.663 | 0.63 | 0.502 | 0.499 | 0.267 | 0.268 | 0.265 | 0.265 | 1.02 | 1.14 | 0.968 | 0.866 |
| NCI-H1666 | 1.09 | 1.03 | 0.916 | 0.867 | 0.972 | 0.835 | 0.62 | 0.438 | 1.02 | 1.07 | 0.937 | 0.651 | 0.793 | 0.774 | 1.03 | 0.787 | 0.973 | 0.9 | 1.04 | 0.846 |
| EKVX | 0.734 | 0.538 | 0.56 | 0.254 | 0.971 | 0.958 | 0.675 | 0.377 | 0.875 | 0.942 | 0.833 | 0.408 | 0.372 | 0.386 | 0.393 | 0.356 | 1.01 | 0.952 | 0.936 | 0.758 |
| COR-L 105 | 0.91 | 0.874 | 0.594 | 0.606 | 0.739 | 0.77 | 0.679 | 0.521 | 0.987 | 0.803 | 0.715 | 0.466 | 1.22 | 1.08 | 1.29 | 1.28 | 0.854 | 0.958 | 0.934 | 0.801 |
